Measurements from patent EP4793271A1, “NEUROPROTECTIVE AGENT” (National Center of Neurology and Psychiatry, priority 2023, dated 2025).

Key:
[1] = molecular target: T1, hSARM1 (Homo sapiens, UniProt Q6SZW1); assay: SARM1 inhibitory activity using recombinant SARM1 (PC6 base exchange fluorescence); assay type: biochemical; set-up: purchased BPS Bioscience; settings: recombinant human SARM1 2 ng/µL; NMN 10 µM; NAD 1 mM; PC6 50 µM; result in words
T1 sequence (Q6SZW1 28-724): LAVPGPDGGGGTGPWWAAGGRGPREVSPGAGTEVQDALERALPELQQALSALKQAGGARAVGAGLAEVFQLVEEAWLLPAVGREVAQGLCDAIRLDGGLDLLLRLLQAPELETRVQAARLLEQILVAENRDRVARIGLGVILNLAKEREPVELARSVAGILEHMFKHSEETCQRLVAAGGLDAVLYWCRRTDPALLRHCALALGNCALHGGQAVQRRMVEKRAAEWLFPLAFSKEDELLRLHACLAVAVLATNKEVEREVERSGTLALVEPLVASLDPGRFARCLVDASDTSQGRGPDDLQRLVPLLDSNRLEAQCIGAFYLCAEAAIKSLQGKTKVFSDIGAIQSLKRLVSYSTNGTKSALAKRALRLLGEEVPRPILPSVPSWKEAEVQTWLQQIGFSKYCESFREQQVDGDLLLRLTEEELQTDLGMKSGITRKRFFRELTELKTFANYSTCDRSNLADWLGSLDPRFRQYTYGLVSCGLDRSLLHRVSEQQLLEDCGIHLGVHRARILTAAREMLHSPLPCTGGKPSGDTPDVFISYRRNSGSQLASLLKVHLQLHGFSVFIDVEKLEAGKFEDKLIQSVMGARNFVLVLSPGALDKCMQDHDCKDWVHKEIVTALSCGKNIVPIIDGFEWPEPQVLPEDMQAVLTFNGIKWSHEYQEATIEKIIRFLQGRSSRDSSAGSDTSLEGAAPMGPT
Procedure: The SARM1 inhibitory activity was evaluated by the following method using recombinant SARM1 from BPS Bioscience.
NMN, an endogenous activator for SARM1, was added at a final concentration of 10 µM to a reaction solution (composition: 40 mM HEPES-KOH (pH 7.4), 0.1% polyvinyl alcohol, and 110 mM potassium acetate) using a 96-well black plate. Subsequently, serial dilutions of the test compound and recombinant human SARM1 (final concentration: 2 ng/µL) were added thereto and preincubated at room temperature for 5 to 10 minutes. NAD and PC6 were added as substrates at final concentrations of 1 mM and 50 µM, respectively, to each well and incubated at room temperature for 1 hour, followed by fluorescent signal measurement using SpectraMax M2 (Molecular Devices) (excitation: 390 nm, fluorescence: 520 nm, fluorescence cutoff: 515 nm) (Li et al, eLife 2021 10: e67381). The fluorescent signal was normalized by using fluorescence intensity measured from a control group without addition of recombinant human SARM1 as a background whereas using fluorescence intensity measured from a control group supplemented with recombinant human SARM1 as the negative control, and plotted as the function of the test compound concentrations, and the compound was evaluated for its SARM1 inhibitory activity by calculating IC50.

[2] = mouse, in vivo
[3] = In vitro analysis of metabolite production with a UV (254 nm) chromatogram

SMILES	SARM1 inhibitory activity [1]	metabolites detected in the plasma [2]	production of metabolites [3]
Nc1ncnc2c1ncn2[C@@H]1O[C@H](COP(=O)([O-])OP(=O)(O)OC[C@H]2O[C@@H]([n+]3cccc(C(=O)NCCCOCCOCCCNC(=O)c4cccnc4)c3)[C@H](O)[C@@H]2O)[C@@H](O)[C@H]1O [compound 35-NAD-like metabolite]	stronger activity than that of compound 35		
O=C(NCCCOCCOCCCNC(=O)c1ccc[n+]([C@@H]2O[C@H](COP(=O)([O-])O)[C@@H](O)[C@H]2O)c1)c1cccnc1 [compound 35-NMN-like metabolite]	stronger activity than that of compound 35		
CC(C)(C)C(=O)Nc1ccc(CNC(=O)c2ccc[n+]([C@@H]3O[C@H](COP(=O)(O)OP(=O)([O-])OC[C@H]4O[C@@H](n5cnc6c(N)ncnc65)[C@H](O)[C@@H]4O)[C@@H](O)[C@H]3O)c2)cn1 [compound 76-NAD-like metabolite]	stronger activity than that of compound 76		
CC(C)(C)C(=O)Nc1ccc(CNC(=O)c2ccc[n+]([C@@H]3O[C@H](COP(=O)([O-])O)[C@@H](O)[C@H]3O)c2)cn1 [compound 76-NMN-like metabolite]	stronger activity than that of compound 76	detected, albeit at a much lower concentration than that of compound 76	
Nc1ncnc2c1ncn2[C@@H]1O[C@H](COP(=O)([O-])OP(=O)(O)OC[C@H]2O[C@@H]([n+]3cccc(C(=O)NCc4ccc(NC(=O)c5ccccc5)nc4)c3)[C@H](O)[C@@H]2O)[C@@H](O)[C@H]1O [compound 105-NAD-like metabolite]	exhibited stronger activity in this order		
O=C(NCc1ccc(NC(=O)c2ccccc2)nc1)c1ccc[n+]([C@@H]2O[C@H](COP(=O)([O-])O)[C@@H](O)[C@H]2O)c1 [compound 105-NMN-like metabolite]	exhibited stronger activity in this order		
O=C(NCc1ccc(NC(=O)c2ccccc2)nc1)c1ccc[n+]([C@@H]2O[C@H](CO)[C@@H](O)[C@H]2O)c1 [compound 105-riboside form]	exhibited stronger activity in this order		confirmed
